Measurements as given in PubChem BioAssay (NCI).
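Where inhibition never reached the appropriate level, the endpoint shown equals the highest concentration tested. Otherwise, values were interpolated linearly from a five-concentration, 48-hour dose response in 96-well plates. At the GI50, growth is halved. TGI is the concentration that stops growth completely.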

What was measured:
Assay in all cases: inhibition of tumour cell growth, NCI panel, 48 h
[1] = system: SF-539 CNS
[2] = system: SF-295 CNS
[3] = system: DU-145 prostate
[4] = system: OVCAR-5 ovarian
[5] = system: UO-31 renal
[6] = system: PC-3 prostate
[7] = system: NCI-H226 lung
[8] = system: MOLT-4 leukemia
[9] = system: RPMI-8226 leukemia
[10] = system: SF-268 CNS
[11] = system: HCT-15 colon
[12] = system: RXF 393 renal
[13] = system: CCRF-CEM leukemia
[14] = system: UACC-62 melanoma
[15] = system: NCI-H23 lung
[16] = system: HCC-2998 colon
[17] = system: ACHN renal
[18] = system: HOP-92 NSCLC
[19] = system: KM12 colon
[20] = system: SN12C renal
[21] = system: SNB-75 CNS
[22] = system: SK-OV-3 ovarian
[23] = system: BT-549 breast
[24] = system: TK-10 renal
[25] = system: HS 578T breast
[26] = system: MDA-MB-435
[27] = system: HOP-62 NSCLC
[28] = system: SK-MEL-28 melanoma
[29] = system: 786-0 renal
[30] = system: OVCAR-3 ovarian
[31] = system: HT29 colon
[32] = system: NCI-H460 lung
[33] = system: K-562 leukemia
[34] = system: IGROV1 ovarian
[35] = system: T-47D breast
[36] = system: MDA-MB-231 breast
[37] = system: SK-MEL-5 melanoma
[38] = system: SR leukemia
[39] = system: M14 melanoma
[40] = system: CAKI-1 renal
[41] = system: SW-620 colon
[42] = system: OVCAR-8 ovarian
[43] = system: NCI/ADR-RES ovarian
[44] = system: A549 NSCLC
[45] = system: U251 CNS
[46] = system: NCI-H522 lung
[47] = system: MALME-3M melanoma
[48] = system: SK-MEL-2 melanoma
[49] = system: LOX IMVI melanoma
[50] = system: EKVX NSCLC
[51] = system: MCF7 breast
[52] = system: HL-60(TB) leukemia
[53] = system: COLO 205 colon
[54] = system: A498 renal
[55] = system: OVCAR-4 ovarian
[56] = system: SNB-19 CNS
[57] = system: HCT-116 colon

In the case of `CCCCCCCC(=O)SCC/C=C/[C@@H]1CC(=O)NCc2nc(co2)C2=N[C@@](C)(CS2)C(=O)N[C@@H](C(C)C)C(=O)O1`, the GI50 [1] is reported as 18.2 nM, the TGI [1] is reported as > 50 µM and the GI50 [2] is reported as 26.4 nM. The TGI [2] was 282 nM, the GI50 [3] was 12.3 nM and the TGI [3] was > 50 µM. For the same compound, the GI50 [4] was 8.49 nM, the TGI [4] was > 50 µM and the GI50 [5] was 43 nM. The TGI [5] was 487 nM, the GI50 [6] was 14.2 nM and the TGI [6] was > 50 µM. It also gave a GI50 [7] of 86.1 nM, a TGI [7] of 2370 nM and a GI50 [8] of 24.1 nM. The TGI [8] was 25.7 µM, the GI50 [9] was 90 nM and the TGI [9] was > 50 µM. The GI50 [10] was 42.2 nM, the TGI [10] was 8.34 µM and the GI50 [11] was 233 nM. For the same compound, the TGI [11] was > 20.4 µM, the GI50 [12] was 21.2 nM and the TGI [12] was 139 nM. The GI50 [13] was 29.6 nM, the TGI [13] was > 50 µM and the GI50 [14] was 9.17 nM. For the same compound, the TGI [14] was 53.6 nM, the GI50 [15] was 41.1 nM and the GI50 [16] was 19.6 nM. It also gave a TGI [16] of 216 nM, a GI50 [17] of 47.5 nM and a TGI [17] of 320 nM. It also gave a GI50 [18] of 14.7 nM, a TGI [18] of 111 nM and a GI50 [19] of 25.3 nM. For the same compound, the TGI [19] was 1610 nM, the GI50 [20] was 50.8 nM and the TGI [20] was > 50 µM. For the same compound, the GI50 [21] was 10.8 nM, the TGI [21] was > 50 µM and the GI50 [22] was 10.7 nM. For the same compound, the TGI [22] was 101 nM, the GI50 [23] was 127 nM and the TGI [23] was > 50 µM. The GI50 [24] was 11.7 nM, the TGI [24] was 126 nM and the GI50 [25] was 12.5 nM. The GI50 [26] was 14.8 nM, the TGI [26] was 1630 nM and the GI50 [27] was 16.9 nM. The GI50 [28] was 13.8 nM, the TGI [28] was 936 nM and the GI50 [29] was 45.6 nM. The TGI [29] was > 50 µM, the GI50 [30] was 24.1 nM and the TGI [30] was 156 nM. It also gave a GI50 [31] of 13.6 nM, a TGI [31] of 7.78 µM and a GI50 [32] of 13.7 nM. For the same compound, the TGI [32] was 8.55 µM, the GI50 [33] was 39.8 nM and the TGI [33] was > 50 µM. The GI50 [34] was 11.4 nM, the TGI [34] was 163 nM and the GI50 [35] was 31.2 nM. For the same compound, the TGI [35] was 201 nM, the GI50 [36] was 54 nM and the TGI [36] was 8.13 µM. The GI50 [37] was 17.9 nM, the TGI [37] was 77.6 nM and the GI50 [38] was 16.4 nM. For the same compound, the TGI [38] was > 50 µM, the GI50 [39] was 20.5 nM and the TGI [39] was > 50 µM. For the same compound, the GI50 [40] was 125 nM, the TGI [40] was 394 nM and the GI50 [41] was 42.3 nM. For the same compound, the TGI [41] was 1900 nM, the GI50 [42] was 12.4 nM and the TGI [42] was > 50 µM. For the same compound, the GI50 [43] was 606 nM, the TGI [43] was > 31.6 µM and the GI50 [44] was 18.4 nM. The TGI [44] was 1910 nM, the GI50 [45] was 44.8 nM and the TGI [45] was 472 nM. The GI50 [46] was 8.08 nM, the TGI [46] was 121 nM and the GI50 [47] was 11.2 nM. The TGI [47] was > 50 µM, the GI50 [48] was 13.2 nM and the TGI [48] was 331 nM. The GI50 [49] was 27.7 nM, the TGI [49] was 103 nM and the GI50 [50] was 34.4 nM. For the same compound, the TGI [50] was > 50 µM, the GI50 [51] was 31.1 nM and the TGI [51] was > 50 µM. It also gave a GI50 [52] of 29.4 nM, a TGI [52] of 31.8 µM and a GI50 [53] of 34.2 nM. For the same compound, the TGI [53] was 141 nM, the GI50 [54] was 9.6 nM and the TGI [54] was 39.6 nM. For the same compound, the GI50 [55] was 27.6 nM, the TGI [55] was > 50 µM and the GI50 [56] was 115 nM. For the same compound, the TGI [56] was > 50 µM, the GI50 [57] was 12.6 nM and the TGI [57] was 1140 nM.
